# Patent publication US20150125550A1, “APPLICATION OF 2,9-DI-SEC-BUTYL-1,10-PHENANTHROLINE AS A GLIOBLASTOMA TUMOR CHEMOTHERAPY” (priority 2013, published 2015)
# Read-outs that look alike come from different tables or passages of the source.
# Legend:
# [1] = system: GL-26 glioma cells; assay: TUNEL apoptosis staining of cultured cells; assay type: cell-based, murine (C57BL/6)
# Procedure: (§1) Histology: For brain tumor histology, mice were perfused intracardially with 4% formaldehyde in Na+/K+ balanced PBS and brains were extracted, incubated in 4% formaldehyde overnight followed by 30% sucrose in Na+/K+ balanced PBS. Brains were flash frozen in isopentane, embedded in optimal cutting temperature compound (OCT), cryosectioned in coronal sections (12 μm) and stained with hematoxylin and eosin. Another cohort of equivalently drug-treated mice was used for liver, lung and gut histology. The mice were then sacrificed on day 19, and the liver, lung and gut tissues were collected and placed in 4% formaldehyde in Na+/K+ balanced PBS overnight. The organs were then placed for 48 hrs in 70% EtOH before paraffin embedding and sectioning at 6 μm. Sections were then stained with hematoxylin and eosin and pathology was assessed blindly and independently by a trained pathologist. A TUNEL staining kit was obtained from TREVIGEN (NeuroTACS II In Situ Apoptosis Detection Kit, Cat#4823-30-K) and used for both ex-vivo slices and in-vitro staining according to manufacturers instructions.
# [2] = system: GL-26 glioma; assay: In-vivo intracranial GL-26 glioma model; set-up: species or system C57BL/6 mice
# Procedure: Female C57BL/6 mice were obtained from Jackson Laboratories and maintained in a pathogen free environment under IACUC established protocols at the University of California Riverside. Mice were anesthetized with continuous administration of 2.5% isofluorane. Cultured GL-26 cells were harvested by trypsinization and 90,000 GL-26 cells in 3 μL of sterile Na+/K+ balanced PBS were injected intracranially. The injection was administered 1 mm anterior and 2 mm lateral to the junction of the coronal and sagittal sutures (bregma), at a depth of 2 mm using a stereotactic mouse frame. Care was taken in alternating injection order and group assignment (treated vs. non-treated) to assure equal GL-26 cell viability between the two treatment groups. SBP was administered intravenously through the retro-orbital route at a concentration of 10 mg/kg in 200 μL sterile Na+/K+ balanced PBS. Drug was administered one, seven, and 13 days after tumor implantation.
# as §1
# [3] = system: primary murine astrocytes; assay: SRB toxicity assay on primary murine astrocytes; assay type: cell-based, murine (C57BL/6); settings: Mus musculus, Astrocyte
# Procedure: (§2) The murine (C57BL/6) glioma cell line, GL-26, which is highly tumorigenic in the C57BL/6 mice. GL-26 cells were cultured in DMEM/F12 supplemented with 10% FCS, 1% penicillin/streptomycin, 1% L-glutamine and 1% non-essential amino acids. Human foreskin fibroblasts (HFFs) were cultured in DMEM/F12 supplemented with 10% FCS and 1% penicillin/streptomycin. Primary murine astrocytes were purified from C57BL/6 neonate brains and cultured in DMEM/F12 supplemented with 10% FCS, 1% non-essential amino acids, 1% Lglutamine, 50 IU/ml penicillin, […] and 10 mM Hepes buffer.
# (§3) The sulforhodamine B (SRB) cytotoxicity assays were adapted from Skehan et al. (22). Briefly, either HFF, primary astrocytes or GL-26 cells were plated in 96-well plates at a density of 4,000 cells/well in a volume of 100 µL overnight at 37° C. and 5% CO2. DMSO stock solutions of SBP, MSBP or TMZ were used at a concentration range of 0.1-25 μM for 48 hr before the supernatant was discarded and the cells were fixed for 1 hr with 10% cold trichloroacetic acid (100 μL, per well). Cells used in recovery assay received fresh media for 48 hrs following the 48 hr drug incubation. The plate was then washed 5 times with de-ionized water, air dried, and stained with 0.4% SRB for 10 min (50 μL, per well). After washing 5 times in 1% acetic acid and air-drying, bound SRB was dissolved in 10 mM unbuffered Tris base (pH 10.5; 100 μL, per well). Bound SRB was then read by absorbance at 492 nm on a SpectraMax plate reader (Molecular Devices). The percent survival was then calculated based upon the absorbance values relative to control wells (0 μM SBP in 0.1% DMSO).
# [4] = system: GL-26 glioma cells; assay: SRB growth assay, GL-26 glioma cells, 48 hr drug incubation; assay type: cell-based, murine (C57BL/6); settings: for IC50: SRB, read-out: IC50 against GL-26 tumor cells
# Procedure: as §2, §3
# [5] = system: GL-26 glioma cells; assay: Propidium iodide cell cycle analysis by flow cytometry; assay type: cell-based, murine (C57BL/6); settings: SBP 48 hours
# Procedure: GL-26 cells were plated at 4000 cells/well in a 96 well plate in GL-26 media (DMEM/F12 supplemented with 10% FCS, 1% penicillin/streptomycin, 1% L-glutamine and 1% non-essential amino acids). The cells were treated 1 day post-plating with 0.1-25 μM SBP for 48 hours. The cells were then detached with Trypsin/EDTA (Cellgro), washed and resuspended at 500,000 cells/ml in ice cold Na+/K+ balanced PBS and fixed by gently adding 70% ethanol and incubating for 2 hrs at 4° C. GL-26 cells were then resuspended in 300-500 μl PI/Triton X-100 staining solution: 10 ml of 0.1% (v/v) Triton X-100 (Sigma) in Na+/K+ balanced PBS with 2 mg DNAse-free RNAse A (Sigma) and 0.40 ml of 500 μg/ml PI (Roche). The stain was allowed to incubate at 37° C. for 15 minutes before acquisition on a BD FacsCanto II flow cytometer.
structure (smiles),measurement,setting,value
"CCC(C)c1ccc2ccc3ccc(C(C)CC)nc3c2n1 (stereo not shown) [Compound 1, 2,9-di-sec-butyl-1,10-phenanthroline]",apoptosis (TUNEL) in cultured GL-26 cells,[1],kills GL-26 cells by inducing apoptosis
same,"body weight regained, % of initial weight","[2]; 10 mg/kg i.v. days 1, 7, 13, 19-day trial",98.1±3.4%
same,tumor section area (pixel area) at the largest tumor cross-section,"[2]; 10 mg/kg i.v. days 1, 7, 13, sacrificed day 19, N=3",5489±1369
same,in situ TUNEL staining of brain tumor sections,[2]; day 19,dark brown cytoplasmic and nuclear staining indicative of cell necrosis and increased DNA fragmentation
same,tumors in treated mice smaller than in untreated control mice,"[2]; mouse, in vivo",5-10 times
same,inhibition at 6 µM,"[3]; 6 μM, 48 hours, read-out: astrocyte growth inhibition",18%
same,inhibition at 25 µM,"[3]; 25 μM, 48 hours, read-out: astrocyte growth inhibition",37.3 ± 0.9%
same,IC50,"[3]; not reached at 25 μM, read-out: IC50 on non-cancerous glial cells (astrocytes)",> 25000 nM
same,inhibition at 6 µM,"[4]; Mus musculus, GL26, 6 μM, read-out: GL-26 cell growth inhibition",66 ± 1%
same,inhibition at 25 µM,"[4]; Mus musculus, GL26, 25 μM, read-out: GL-26 cell growth inhibition",67 ± 0.5%
same,IC50,"[4]; Mus musculus, GL26, 48 h",3000 to 6000 nM
same,IC50,[4]; listed as SBP,3000 nM
same,cell cycle effect (propidium iodide),[5],not arrested in the G1 phase
